Measured values from US20250215071A1, “Novel Mcl-1 inhibitor and combination of Mcl-1 and a BH3 mimetic, such as a Bcl-2 inhibitor” (NETRIS PHARMA, priority 2022, published 2025).

Test system: HeLa UNC5B cells
Experiment: UNC5B-induced DNA fragmentation in HeLa UNC5B cells
Assay type: cell-based, Human
Settings: doxycycline-induced UNC5B; 18 hours
Protocol: FIG. 2. CRISPR-Cas9 screening identifies genes and molecular pathways involved in UNC5B-induced cell death. Related to FIG. 1. (A): UNC5B induction upon treatment with doxycycline. Stable HCT116 cells, inducible for UNC5B, were treated with the indicated concentrations of doxycycline (Dox). 24 hours later, protein levels of FLAG-UNC5B and GAPDH, used as housekeeping gene, were assessed by western blot. (B): UNC5B induction upon treatment with doxycycline on Hela cells. Stable Hela cells inducible for UNC5B (HeLa UNC5B) were treated with the indicated doses of Dox for 18 hours. Protein levels of His-UNC5B and β-actin, used as housekeeping gene, were measured by western blot. (C,D,E): Induction of UNC5B triggers apoptotic cell death in HCT116 cells. Stable HCTT16 cells inducible for human UNC5B were treated with Dox. To assess cell death, propidium iodide (PI) incorporation was followed in real-time up to 36 hours, using an Incucyte Zoom technology (n=3, ** p<0.01, Kolmogorov Smirnov test) (C). Apoptosis was assessed 18 hours after Dox treatment by DNA fragmentation through flow cytometry ([…] (D) and by caspase-3 activity (E), quantified by fluorometric detection kit (n=3, *p<0.05, ** p<0.01, *** p<0.001, Ordinary two-way ANOVA). Values are given as means±SEM. (F): Caspase inhibition rescues apoptosis triggered by UNC5B. HeLa UNC5B cells were treated with Dox and the pan-caspase inhibitor […] (QVD). 18 hours later, DNA fragmentation was evaluated by flow cytometry (n=3, **** p<0.0001, ordinary two-way ANOVA with Šidák's multiple comparisons test). Values are given as means±SEM. […] The number of guides showing an increase in reads compared to control condition is shown for each gene.
FIG. 4. […] 18 hours after treatment, apoptosis was measured by DNA fragmentation (A) and caspase-3 activity (B) (n=3-4, **** p<0.0001, ordinary two-way ANOVA with Tukey's multiple comparisons test). […] Protein levels of Mcl-1, Bcl-2 and Bcl-XL, as well as of UNC5B and B-actin, used as housekeeping gene, were evaluated by western blot. […]

SMILES: CC(C)C[C@H](NC(=O)[C@H](Cc1ccccc1)NC(=O)c1cnccn1)B(O)O [bortezomib]
- UNC5B-induced apoptosis (DNA fragmentation): suppressed
